The target of experiment [1] is T1, Full-length wild type HIV-1 integrase (SF1) (Human immunodeficiency virus type 1 group M subtype B, UniProt P04585).
T1 construct: made in house; host or cells: E. coli BL21 (DE3)
Nature of the experiment: Integrase strand-transfer scintillation proximity assay. The note with it: strand transfer, 50 min at 37° C., 246 nM integrase, 50 nM host DNA; read-out: IC50. The format is biochemical. In outline: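 Recombinant full-length wild-type HIV-1 integrase (aa 1-288), E. coli-expressed, tested on biotinylated pre-processed U5 LTR viral ds-DNA with CA overhang bound to streptavidin SPA beads. [3H]-thymidine-labelled host ds-DNA serves as target; strand transfer read by scintillation proximity. A 3′ di-deoxy viral DNA control checks non-specific binding.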
For orientation: Scintillation proximity formats need no separation of bound from free tracer.

Experiment [2] concerns RF strain of HIV-1 in CEM-SS cells. The experiment is described as follows: HIV-1 cell protection assay (XTT dye reduction). The experiment is classed as cell-based. Put shortly: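 CEM-SS cells infected with HIV-1 RF (moi 0.025–0.819) or mock-infected, 2×10^4 cells/well with half-log compound dilutions for six days. Viability by XTT/PMS reduction (4 h), absorbance 450 nm, as % of uninfected untreated cells. Therapeutic index = CC50/EC50.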

Where [3] appears, read: Human immunodeficiency virus 1, CEM-SS, 144 h, HIV-1 RF, CEM-SS cells, XTT dye reduction, six days, read-out: EC50.
The mark [4] stands for this setting: Human immunodeficiency virus 1, CEM-SS, 144 h.

The source of these data is patent publication US7468375B2 (Pfizer Inc., priority 2004, dated 2008).

Molecules are shown by their SMILES. Where two headings read alike, the source gives them in different places.

As usually defined, the IC50 is the concentration that gives 50% inhibition. Broadly, the EC50 is the concentration giving half of the maximal effect. For the molecule `O=C(NO)c1cc2c(cn1)c(Cc1ccc(F)cc1)cn2Cc1ccc(F)cc1` [Example 32, 1,3-Bis(4-fluorobenzyl)-N-hydroxy-1H-pyrrolo[3,2-c]pyridine-6-carboxamide], the half-maximal inhibitory concentration (IC50) in experiment [1] was 215 nM. Also, the EC50 in experiment [2] (setting [3]) is 25 nM.

On to `CCCN(Cc1cn(Cc2ccc(F)cc2F)c2cnc(C(=O)NO)cc12)CC1CC1` [Example 73, 3-{[(Cyclopropylmethyl)(propyl)amino]methyl}-1-(2,4-difluorobenzyl)-N-hydroxy-1H-pyrrolo[2,3-c]pyridine-5-carboxamide], for which the IC50 in experiment [1] was found to be 658 nM. Besides, the EC50 in experiment [2] (setting [3]) came to 35 nM.

As for `CN(O)C(=O)c1cc2c(CN3CCNC(=O)C3)cn(Cc3ccc(F)cc3)c2cn1` [Example 114, 1-(4-fluorobenzyl)-N-hydroxy-N-methyl-3-[(3-oxopiperazin-1-yl)methyl]-1H-pyrrolo[2,3-c] pyridine-5-carboxamide], the IC50 in experiment [1] came out at 150 nM. In experiment [2] (setting [4]), this molecule came in with an EC50 of 351 nM.

`CN(O)C(=O)c1cc2c(CN3[C@H]4CC[C@@H]3C(=O)NC4)cn(Cc3ccc(F)cc3)c2cn1` [Example 34, (4-Fluorobenzyl)-N-hydroxy-N-methyl-3-{[(1R,5S)-2-oxo-3,8-diazabicyclo[3.2.1]oct-8-yl]methyl}-1H-pyrrolo[2,3-c]pyridine-5-carboxamide]: the IC50 in experiment [1] turned out to be 490 nM. In experiment [2] (setting [4]), this molecule gave an EC50 of 170 nM.

Turning to `COCCOCc1cn(Cc2ccc(F)cc2)c2cnc(C(=O)N(C)O)cc12` [Example 108, 1-(4-Fluorobenzyl)-N-hydroxy-3-[(2-methoxyethoxy)methyl]-N-methyl-1H-pyrrolo[2,3-c]pyridine-5-carboxamide], the half-maximal inhibitory concentration (IC50) in experiment [1] was determined as 21.2 nM. The molecule further had an EC50 in experiment [2] (setting [4]) of 334 nM.

`CCOC(=O)N1C2CC[C@@H]1CC(NCc1cn(Cc3ccc(F)cc3F)c3cnc(C(=O)NO)cc13)C2` (stereo in doubt) [Example 97, Ethyl (1R,5S)-3-[({1-(2,4-difluorobenzyl)-5-[(hydroxyamino)carbonyl]-1H-pyrrolo[2,3-c]pyridin-3-yl}methyl)amino]-8-azabicyclo[3.2.1]octane-8-carboxylate]: the IC50 in experiment [1] worked out at 311 nM. In addition, in experiment [2] (setting [4]), the response was half-maximal at 20 nM (EC50).

Regarding `CN(O)C(=O)c1cc2cnn(Cc3ccc(F)cc3)c2cn1` [Example 36, 1-(4-Fluorobenzyl)-N-hydroxy-N-methyl-1H-pyrazolo[3,4-c]pyridine-5-carboxamide], the IC50 in experiment [1] was 811 nM. The EC50 in experiment [2] (setting [3]) is 390 nM.

On to `O=C(c1cc2ccn(Cc3ccc(F)cc3)c2cn1)N(O)CCCO` [Example 30, 1-(4-Fluorobenzyl)-N-hydroxy-N-(3-hydroxypropyl)-1H-pyrrolo[2,3-c]pyridine-5-carboxamide], for which, in experiment [1], the IC50 turned out to be 804 nM. The 50% effective concentration (EC50) in experiment [2] (setting [3]) was 300 nM.

In the case of `CN(O)C(=O)c1cc2c(COC[C@@H]3COC(C)(C)O3)cn(Cc3ccc(F)cc3)c2cn1` [Example 110, 3-({[(4R)-2,2-Dimethyl-1,3-dioxolan-4-yl]methoxy}methyl)-1-(4-fluorobenzyl)-N-hydroxy-N-methyl-1H-pyrrolo[2,3-c]pyridine-5-carboxamide], the IC50 in experiment [1] worked out at 14 nM. Further, in experiment [2] (setting [4]), it took 341 nM to reach a half-maximal effect (EC50).

Regarding `CN(O)C(=O)c1cc2ncn(Cc3ccc(F)cc3)c2cn1` [Example 23, 3-(4-Fluorobenzyl)-N-hydroxy-N-methyl-3-H-imidazo[4,5-c]pyridine-6-carboxamide], in experiment [1], the concentration for half-maximal inhibition (IC50) is 1300 nM. The EC50 in experiment [2] (setting [3]) worked out at 780 nM.

Consider `CN(C)CC(C)(C)CNCc1cn(Cc2ccc(F)cc2F)c2cnc(C(=O)NO)cc12` [Example 61, 1-(2,4-Difluorobenzyl)-3-({[3-(dimethylamino)-2,2-dimethylpropyl]amino}methyl)-N-hydroxy-1H-pyrrolo[2,3-c]pyridine-5-carboxamide], for which the IC50 in experiment [1] stood at 916 nM. For the same molecule, the concentration for a half-maximal effect (EC50) in experiment [2] (setting [3]) came out at 35 nM.

On to `CCN1CCCC1CNCc1cn(Cc2ccc(F)cc2F)c2cnc(C(=O)NOC)cc12` (centres unmarked) [Example 46, 1-(2,4-Difluorobenzyl)-3-({[(1-ethylpyrrolidin-2-yl)methyl]amino}methyl)-N-methoxy-1H-pyrrolo[2,3-c]pyridine-5-carboxamide], for which the half-maximal inhibitory concentration (IC50) in experiment [1] is 912 nM. Also, the EC50 in experiment [2] (setting [3]) came to 130 nM.

Regarding `CCO/C=C/c1c(C(=O)NO)ncc2c1ccn2Cc1ccc(F)cc1` [Example 38, 4-[(E)-2-Ethoxyvinyl]-1-(4-fluorobenzyl)-N-hydroxy-1H-pyrrolo[2,3-c]pyridine-5-carboxamide], the half-inhibitory concentration (IC50) in experiment [1] turned out to be 145 nM. The EC50 in experiment [2] (setting [3]) stood at 12 nM.

Regarding `O=C(NO)c1cc2c(CN3CCS(=O)(=O)CC3)cn(Cc3ccc(F)cc3F)c2cn1` [Example 9, 1-(2,4-Difluorobenzyl)-3-[(1,1-dioxidothiomorpholin-4-yl)methyl]-N-hydroxy-1H-pyrrolo[2,3-c]pyridine-5-carboxamide], the half-inhibitory concentration (IC50) in experiment [1] was found to be 20 nM. Also, the 50% effective concentration (EC50) in experiment [2] (setting [3]) was found to be 7.4 nM.

Take `COCc1c(C(=O)NO)ncc2c1ccn2Cc1ccc(F)cc1F` [Example 19, 1-(2,4-Difluorobenzyl)-N-hydroxy-4-(methoxymethyl)-1-H-pyrrolo[2,3-c]pyridine-5-carboxamide]: the IC50 in experiment [1] worked out at 218 nM. The half-maximal effective concentration (EC50) in experiment [2] (setting [3]) was determined as 48 nM.

In the case of `C[C@@H](OCc1cn(Cc2ccc(F)cc2)c2cnc(C(=O)N(C)O)cc12)c1ccccc1` [Example 119, 1-(4-Fluorobenzyl)-N-hydroxy-N-methyl-3-{[(1R)-1-phenylethoxy]methyl}-1H-pyrrolo[2,3-c]pyridine-5-carboxamide], the half-inhibitory concentration (IC50) in experiment [1] was determined as 39 nM. Moreover, the EC50 in experiment [2] (setting [3]) came out at 505 nM.

As for `CCN1CCCC1CNCc1cn(Cc2ccc(F)cc2F)c2cnc(C(=O)NO)cc12` (centres unmarked) [Example 62, 1-(2,4-Difluorobenzyl)-3-({[(1-ethylpyrrolidin-2-yl)methyl]amino}methyl)-N-hydroxy-1H-pyrrolo[2,3-c]pyridine-5-carboxamide], in experiment [1], the IC50 is 671 nM. For the same molecule, the EC50 in experiment [2] (HIV-1 RF, CEM-SS cells, XTT dye reduction, six days, read-out: EC50) is 17 nM.

Consider `CCN(CCO)Cc1cn(Cc2ccc(F)cc2F)c2cnc(C(=O)NO)cc12` [Example 69, 1-(2,4-Difluorobenzyl)-3-{[ethyl(2-hydroxyethyl)amino]methyl}-N-hydroxy-1H-pyrrolo[2,3-c]pyridine-5-carboxamide], for which the IC50 in experiment [1] was determined as 755 nM. In addition, the EC50 in experiment [2] (setting [3]) was found to be 28 nM.

For the molecule `O=C(NO)c1cc2c(CNCCOCCO)cn(Cc3ccc(F)cc3F)c2cn1` [Example 58, 1-(2,4-Difluorobenzyl)-N-hydroxy-3-({[2-(2-hydroxyethoxy)ethyl]amino}methyl)-1H-pyrrolo[2,3-c]pyridine-5-carboxamide], in experiment [1], the IC50 came out at 585 nM. For the same molecule, the EC50 in experiment [2] (setting [3]) amounted to 100 nM.
